The results in this text go back to ChEMBL document CHEMBL1909046, “DrugMatrix in vitro pharmacology data”.

The nature of experiment [1]: DRUGMATRIX: Calcium Channel Type L, Dihydropyridine radioligand binding (ligand: [3H] Nitrendipine). It is filed as cell membranes, Rattus norvegicus, Wistar, Cerebral cortex, Membrane. Particulars: Not Active = under 50% inhibition at 10 µM.
The target of experiment [2] is Sigma non-opioid intracellular receptor 1 (Homo sapiens, UniProt Q99720). As to the kind of experiment: DRUGMATRIX: Sigma1 radioligand binding (ligand: [3H] Haloperidol). The experiment is classed as cell membranes, Jurkat, Membrane. The note with it: jurkat; Not Active = under 50% inhibition at 10 µM.
Chain of Sigma non-opioid intracellular receptor 1 (Q99720 whole entry): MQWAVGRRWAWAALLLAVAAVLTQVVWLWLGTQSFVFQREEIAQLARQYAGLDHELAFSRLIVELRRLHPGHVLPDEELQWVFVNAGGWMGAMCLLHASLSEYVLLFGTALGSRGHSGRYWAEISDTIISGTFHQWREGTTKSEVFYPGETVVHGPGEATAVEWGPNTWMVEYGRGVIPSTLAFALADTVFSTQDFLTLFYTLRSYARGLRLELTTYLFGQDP
Experiment [3] in a line: DRUGMATRIX: GABAA, Chloride Channel, TBOB radioligand binding (ligand: [3H] TBOB). The note with it: Not Active = under 50% inhibition at 10 µM. The experiment is classed as cell membranes, Rattus norvegicus, Wistar, Cerebral cortex, Membrane.
Experiment [4] in a line: DRUGMATRIX: Glutamate, AMPA radioligand binding (ligand: [3H] AMPA). Particulars: Not Active = under 50% inhibition at 10 µM. The experiment is classed as cell membranes, Rattus norvegicus, Wistar, Cerebral cortex, Membrane.
The target in experiment [5] is T1, Amine oxidase [flavin-containing] A (Homo sapiens, UniProt P21397).
T1 sequence (P21397 whole entry): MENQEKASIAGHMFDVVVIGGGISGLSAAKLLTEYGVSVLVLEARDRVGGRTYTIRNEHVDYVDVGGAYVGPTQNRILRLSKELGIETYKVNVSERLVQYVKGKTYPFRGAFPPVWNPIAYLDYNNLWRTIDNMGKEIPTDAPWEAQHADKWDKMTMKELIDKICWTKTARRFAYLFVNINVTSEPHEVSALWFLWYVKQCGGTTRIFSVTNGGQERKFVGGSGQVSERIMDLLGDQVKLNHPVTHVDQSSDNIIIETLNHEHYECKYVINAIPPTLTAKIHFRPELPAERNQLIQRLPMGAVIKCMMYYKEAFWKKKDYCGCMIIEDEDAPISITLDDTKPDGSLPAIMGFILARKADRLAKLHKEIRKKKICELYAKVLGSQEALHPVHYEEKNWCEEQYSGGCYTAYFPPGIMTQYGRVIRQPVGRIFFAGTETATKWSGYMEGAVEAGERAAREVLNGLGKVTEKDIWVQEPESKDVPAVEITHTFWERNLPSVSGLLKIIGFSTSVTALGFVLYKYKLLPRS
As to the kind of experiment: DRUGMATRIX: Monoamine Oxidase MAO-A enzyme inhibition (substrate: Kynuramine). More on the design: species or system BTI-TN-5B1-4. The note with it: Not Active = under 50% inhibition at 10 µM.

The target of the next experiment is T2, Progesterone receptor (Bos taurus, UniProt Q690N0).
T2 sequence (Q690N0 whole entry): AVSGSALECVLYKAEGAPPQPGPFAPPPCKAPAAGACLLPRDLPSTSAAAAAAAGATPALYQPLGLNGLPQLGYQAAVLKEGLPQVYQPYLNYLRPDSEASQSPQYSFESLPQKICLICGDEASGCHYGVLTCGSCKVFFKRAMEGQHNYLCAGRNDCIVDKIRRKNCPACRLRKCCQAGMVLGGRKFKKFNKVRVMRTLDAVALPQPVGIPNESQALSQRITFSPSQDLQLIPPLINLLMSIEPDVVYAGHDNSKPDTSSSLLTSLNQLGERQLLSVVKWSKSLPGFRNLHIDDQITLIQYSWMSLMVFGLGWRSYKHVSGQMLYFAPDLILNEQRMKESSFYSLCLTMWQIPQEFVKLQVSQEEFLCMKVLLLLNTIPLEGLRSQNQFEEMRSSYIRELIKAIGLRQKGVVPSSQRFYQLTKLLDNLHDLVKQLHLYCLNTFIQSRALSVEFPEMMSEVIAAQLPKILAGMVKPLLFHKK
As to the kind of experiment: DRUGMATRIX: Progesterone radioligand binding (ligand: [3H] R-5020). Particulars: Not Active = under 50% inhibition at 10 µM. It is filed as tissue-based, Uterus.

Regarding `N=C(N)c1ccc(OCCCCCOc2ccc(C(=N)N)cc2)cc1` [PENTAMIDINE], the IC50 result was “Not Active” in experiment [1]; “Not Active” in experiment [2]; “Not Active” in experiment [3]; “Not Active” in experiment [4]; 0.793 µM in experiment [5] (read-out: IC50); “Not Active” at Progesterone receptor. Also, the Ki result in experiment [1], in experiment [3] and in experiment [4] was “Not Active” throughout.
As for `CCc1ccc(CCOc2ccc(CC3SC(=O)NC3=O)cc2)nc1` (stereo unspecified) [PIOGLITAZONE], the IC50 result in experiment [1] is “Not Active”; in experiment [2] it was “Not Active”; in experiment [3], “Not Active”; in experiment [4] it was “Not Active”; in experiment [5] (read-out: IC50), 35.1 µM; on Progesterone receptor it was “Not Active”. Also, the Ki entry in experiment [1], in experiment [3] and in experiment [4] was “Not Active” throughout.
Take `CCCNC(C)C(=O)Nc1ccccc1C` (stereo unspecified) [PRILOCAINE]: the IC50 entry (in experiment [1]; in experiment [2]; in experiment [3]; in experiment [4]; in experiment [5] (bti-tn-5b1-4); at Progesterone receptor) was “Not Active” in each case. Further, the Ki result in experiment [1], in experiment [3] and in experiment [4] was “Not Active” in each case.
With `CCN(CC)CCNC(=O)c1ccc(N)cc1` [PROCAINAMIDE], the IC50 result (in experiment [1]; in experiment [2]; in experiment [3]; in experiment [4]; in experiment [5] (bti-tn-5b1-4); on Progesterone receptor) was “Not Active” in each case. Also, the Ki result in experiment [1], in experiment [3] and in experiment [4] was “Not Active” throughout.
Take `CCN(CC)CCCC(C)Nc1c2ccc(Cl)cc2nc2ccc(OC)cc12` (stereo unspecified) [QUINACRINE]: the IC50 entry (in experiment [1]; in experiment [2]; in experiment [3]; in experiment [4]; in experiment [5] (bti-tn-5b1-4); on Progesterone receptor) was “Not Active” in each case. Further, the Ki entry in experiment [1], in experiment [3] and in experiment [4] was “Not Active” in each case.
For `C[C@]12C=CC(=O)C=C1CC[C@H]1[C@@H]3C[C@@H](O)[C@](O)(C(=O)CO)[C@@]3(C)C[C@H](O)[C@@]12F` [TRIAMCINOLONE], the IC50 entry (in experiment [1]; in experiment [2]; in experiment [3]; in experiment [4]; in experiment [5] (bti-tn-5b1-4); on Progesterone receptor) was “Not Active” each time. In addition, the Ki entry in experiment [1], in experiment [3] and in experiment [4] was “Not Active” each time.
As to `CC[C@]1(O)C[C@@H]2CN(CCc3c([nH]c4ccccc34)[C@@](C(=O)OC)(c3cc4c(cc3OC)N(C)[C@H]3[C@@](O)(C(N)=O)[C@H](O)[C@]5(CC)C=CCN6CC[C@]43[C@@H]65)C2)C1` [VINDESINE], the IC50 entry (in experiment [1]; in experiment [2]; in experiment [3]; in experiment [4]; in experiment [5] (bti-tn-5b1-4); at Progesterone receptor) was “Not Active” in each case. Besides, the Ki entry in experiment [1], in experiment [3] and in experiment [4] was “Not Active” throughout.
Consider `CCN(C(C)=O)c1cccc(-c2ccnc3c(C#N)cnn23)c1` [ZALEPLON], for which the IC50 result (in experiment [1]; in experiment [2]; in experiment [3]; in experiment [4]; in experiment [5] (bti-tn-5b1-4); on Progesterone receptor) was “Not Active” in each case. Further, the Ki result in experiment [1], in experiment [3] and in experiment [4] was “Not Active” each time.
COBALTOUS CHLORIDE: the IC50 entry (in experiment [1]; in experiment [2]; in experiment [3]; in experiment [4]; in experiment [5] (bti-tn-5b1-4); on Progesterone receptor) was “Not Active” in each case. The Ki entry (in experiment [1]; in experiment [2]; in experiment [3]; in experiment [4]; in experiment [5] (bti-tn-5b1-4); on Progesterone receptor) was “Not Active” each time.
COLISTIN: the IC50 entry (in experiment [1]; in experiment [2]; in experiment [3]; in experiment [4]; in experiment [5] (bti-tn-5b1-4); at Progesterone receptor) was “Not Active” each time. Further, the Ki result (in experiment [1]; in experiment [2]; in experiment [3]; in experiment [4]; in experiment [5] (bti-tn-5b1-4); on Progesterone receptor) was “Not Active” in each case.

Usually IC50 stands for the point on the concentration scale where inhibition reaches its midpoint.
